Data published in patent US8222264B2, “Substituted amino-quinazolinones, medicaments comprising said compound, their use and their method of manufacture” (Boehringer Ingelheim International GmbH, priority 2007, dated 2012).

Target: T1, β-secretase (ectodomain of BACE, amino acids 1-454) (Homo sapiens, UniProt P56817)
T1 construct: poly-histidine; made in house; host or cells: HEK293/APP/BACEect. cells; unpurified culture supernatant in OptiMEM used as enzyme source
Assay: β-secretase activity assay, fluorescence-quenched Cy3/Cy5Q peptide substrate
Assay type: biochemical
Settings: 100 μM test compound; positive control minus negative control = 100%; values above 100% adjusted to 100%
Experimental: To calculate the IC50 value of a substance different amounts of substance are incubated with the β-secretase in an assay. The IC50 value of a compound is defined as the concentration of substance at which a 50% reduction in the detected signal is measured, compared with the mixture without the test compound. Substances are evaluated as inhibiting β-secretase if under these conditions their IC50 value is less than 50 μM, preferably less than 10 μM and particularly preferably less than 1 μM.
In detail, an assay for detecting β-secretase activity may be as follows: The ectodomain of BACE (amino acids 1-454) fused to the recognition sequence for an anti-Myc antibody and a poly-histidine is secreted overnight by HEK293/APP/BACEect. cells in OptiMEM® (Invitrogen). A 10 μl aliquot of this cell culture supernatant is used as the enzyme source. The enzyme is stable over more than 3 months' storage at 4° C. or −20° C. in OptiMEM®. The substrate used is a peptide with the amino acid sequence SEVNLDAEFK, to which the Cy3 fluorophore (Amersham) is coupled N-terminally and the Cy5Q fluorophore (Amersham) is coupled C-terminally. The substrate is dissolved in DMSO in a concentration of 1 mg/ml and used in the experiment in a concentration of 1 μM. The test mixture also contains 20 mM NaOAc, pH 4.4 and a maximum of 1% DMSO. The test is carried out in a 96-well plate in a total volume of 200 μl for 30 minutes at 30° C. The cleaving of the substrate is recorded kinetically in a fluorimeter (ex: 530 nm, em: 590 nm). The assay is started by adding the substrate.
Mixtures without enzyme (i.e. negative control) or without inhibitor (i.e. positive control) are included in each plate as controls.
The activity of the positive control (minus the negative control=background) is set to 100% and activity in the presence of test compound is expressed relative to these 100%. […]
IC50 can be calculated with Graph Pad Prism or other suited software setting the positive control minus the negative control as 100. […]

T1 sequence (P56817 22-454): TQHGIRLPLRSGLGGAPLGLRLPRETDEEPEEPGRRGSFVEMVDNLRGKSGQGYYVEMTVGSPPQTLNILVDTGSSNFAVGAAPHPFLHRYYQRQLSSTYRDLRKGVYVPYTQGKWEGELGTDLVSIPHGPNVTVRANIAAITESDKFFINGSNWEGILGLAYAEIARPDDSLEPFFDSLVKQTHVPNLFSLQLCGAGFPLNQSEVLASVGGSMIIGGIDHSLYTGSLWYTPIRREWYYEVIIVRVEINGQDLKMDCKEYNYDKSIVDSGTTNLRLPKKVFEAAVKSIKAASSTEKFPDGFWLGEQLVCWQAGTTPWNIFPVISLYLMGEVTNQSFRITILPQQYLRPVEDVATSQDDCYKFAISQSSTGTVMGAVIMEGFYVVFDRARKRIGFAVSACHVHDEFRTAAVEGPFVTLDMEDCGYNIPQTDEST

inhibition at 100 µM | Compound
98% | CN(C(=O)CC[C@@H](C1CCCCC1)n1c(N)nc2ccc(Oc3ccccc3)cc2c1=O)C1CCCCC1 [Example 1]
91% | CN(C(=O)CCC(C1CCCCC1)n1c(N)nc2ccc(Br)cc2c1=O)C1CCCCC1 (stereo not drawn) [Example 3]
81% | CCOc1ccccc1-c1ccc2nc(N)n(C(CCC(=O)N(C)C3CCCCC3)C3CCCCC3)c(=O)c2c1 (stereo not drawn) [Example 2]
